Read-outs that look alike come from different tables or passages of the source.
What was measured:
serum iron [1] = experiment: In vivo serum iron reduction in mice; design: species or system mice (C57-BL6); conditions: s.c., tested in rats or in mice
Description: Instead of rats, mice (C57-BL6) were tested.
A similar experiment was performed with lower doses to assess the dose response of these compounds for inducing serum iron reduction. Methods were as described above in this Example, except for the following parameters: n=4 mice/group, however n=8 for the vehicle, as two groups were pooled. Mice were administered test compounds at two separate dosages (300 nmol/kg or 1000 nmol/kg), via subcutaneous injection. Serum iron levels were assessed as in Example 8 two hours after peptide or vehicle injection. […] Moreover, it was clear that several of the compounds were able to induce maximum effects at dosages as low as 300 nmol/kg.
The route of peptide administration was via subcutaneous injection, unless otherwise indicated as having been via intraperitoneal injection (this is noted on the table by “i.p.” in parentheses following the “yes” or “no” determination).
(§1) The peptides were also tested for other pharmacokinetic/pharmacodynamic (PK/PD) parameters using methods commonly know by the skilled artisan. These parameters included determinations regarding stability (hours stable in plasma from the indicated human or rat subject), half-life in mice, and in vitro activity (EC50), tested as described in Example 2.

serum iron [2] = experiment: In vivo serum iron reduction in mice; design: species or system mice (C57-BL6); conditions: C57BL6 mice, time course, FIG. 6
serum iron [3] = experiment: Reduction of free plasma iron in rats (serum iron after i.p. dosing); format: in vivo, Sprague-Dawley rats; conditions: IP dosing, FIGS. 2 and 3
Description: At Day 1, the animals were monitored for free Fe^2+ in serum. In order to reach a homogenous serum level, Fe^2+ was analyzed and a homogenous cohort of 7 or 8 animals randomized to each treatment group. At Day 2, an acute experiment where the animals were subjected to i.p. dosing of test compound and subsequent tail vein blood samples. Prior to dosing, the animals were put under a heating lamp for 3-5 minutes. Blood samples were drawn from the tail vein from all animals in order to determine serum iron levels prior to vehicle or compound dosing. Animals were dosed i.p. with 1 ml of test substance in vehicle or just vehicle and blood samples of 250 μl was drawn from each animal at t=0, 60, 120, 240, 360 min and 24 hours in the study of the reference compound. The dose response study performed with Retro Inverse (RI) mini-Hepcidin (Reference compound), and the efficacy study performed with Compound No. 2 were performed as two separate experiments. […]
Male Sprague-Dawley rats weighing 200-250 g were used in the study. […] Humane endpoints were applied, according to OECD's “Guidelines for Endpoints in Animal Study Proposals.” The animals were monitored daily.
Iron content in plasma/serum is measured for iron content using a colorimetric assay on the Cobas c 111 according to instructions from the manufacturer of the assay (assay: IRON2: ACN 661). […]

human ferroportin = target: T1, human ferroportin (Homo sapiens, UniProt Q9NP59); format: cell-based
T1 sequence (Q9NP59 1-571): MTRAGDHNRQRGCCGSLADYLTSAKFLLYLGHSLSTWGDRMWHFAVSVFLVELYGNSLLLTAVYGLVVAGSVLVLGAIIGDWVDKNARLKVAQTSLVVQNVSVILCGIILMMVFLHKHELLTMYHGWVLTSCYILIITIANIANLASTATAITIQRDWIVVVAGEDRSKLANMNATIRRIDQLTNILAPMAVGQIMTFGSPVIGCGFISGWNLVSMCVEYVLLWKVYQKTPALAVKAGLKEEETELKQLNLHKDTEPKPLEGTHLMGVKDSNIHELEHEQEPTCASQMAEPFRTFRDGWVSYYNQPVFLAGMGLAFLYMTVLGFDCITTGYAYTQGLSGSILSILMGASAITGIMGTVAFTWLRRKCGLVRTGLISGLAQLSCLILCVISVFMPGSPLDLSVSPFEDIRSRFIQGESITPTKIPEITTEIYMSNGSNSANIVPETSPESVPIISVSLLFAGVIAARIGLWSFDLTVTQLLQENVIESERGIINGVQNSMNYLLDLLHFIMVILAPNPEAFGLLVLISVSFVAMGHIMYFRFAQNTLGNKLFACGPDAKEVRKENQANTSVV
Source text: The cDNA encoding the human ferroportin (SLC40A1) was cloned from a cDNA clone from Origene (NM_014585). The DNA encoding the ferroportin was amplified by PCR using primers also encoding terminal restriction sites for subcloning, but without the termination codon. The ferroportin receptor was subcloned into a mammalian GFP expression vector containing a neomycin (G418) resistance marker in such that the reading frame of the ferroportin was fused in frame with the GFP protein. The fidelity of the DNA encoding the protein was confirmed by DNA sequencing. HEK293 cells were used for transfection of the ferroportin-GFP receptor expression plasmid. The cells were grown according to standard protocol in growth medium and transfected with the plasmids using Lipofectamine (manufacturer's protocol, Invitrogen). […] The cells were propagated and frozen in aliquots.
A retro inverse peptide is a peptide with a reversed sequence in all D amino acids. […] The EC50 of these reference compounds for ferroportin degradation was determined according to the activity assay described above.

[4] = Stability in human serum (LC-MS); format: in vitro ADME; conditions: 10 μM peptide, 37 degrees C, up to 24 hours
Description: Serum stability experiments were undertaken to complement the in vivo results and assist in the design of potent, stable Ferroportin agonists. In order to predict the stability in humans, ex vivo stability studies were initially performed in human serum.
Samples were taken at various time points up to 24 hours. The samples were separated from serum proteins and analysed for the presence of the peptide of interest using LC-MS. The amount of intact peptide in each sample was calculated using the analyte peak area in relation to the zero time point.
as §1

[5] = Hepcidin analog peptides, read-out: Potency EC50
[6] = read-out: EC50 (nM) (n > 3), alanine scan of Compound 18

Substance	In Vivo Activity (s.c.) 300 nmol/kg (serum iron [1])	serum iron, PK/PD effects (serum iron [2])	In Vivo Activity (s.c.) 1000 nmol/kg (serum iron [1])	serum iron level (serum iron [3])	EC50 (human ferroportin; [5])	EC50 (human ferroportin; [6])	t½ [4]
Isovaleric acid-DTHFPCIKFEPRSKGWVCK-NH2 [Compound 181]	Yes	a rapid decrease in serum iron, which was transient	–	–	–	–	–
Isovaleric acid-DTHFPCIKFGPRSKGWVC-K(PEG8)-NH2 [Compound 153]	Yes	sustained	Yes	–	–	–	–
Isovaleric acid-DTHFPICIFGPRSKGWVC-NH2 [Compound 2]	Yes	–	Yes	a decrease in serum iron level that was comparable to that observed after injection of the positive control	–	–	–
H-DTHFPICIFGPRSKGWVCM-NH2 (cysteine pairing not given here) [Compound 18]	–	–	–	–	125 nM	125 nM	2.32 h
Hy-DPhe-DIle-DCys-DIle-DPro-DPhe-DHis-DThr-DAsp-NH2 [RI-Mini Hepcidin, reference compound]	–	–	–	in neither case significant	–	–	–
H-DTHFPICIFGPRSKGWACM-NH2 (cysteine pairing not given here) [Compound 47]	–	–	–	–	313 nM	313 nM	~40 h

Reference: patent US9822157B2 (priority 2013, dated 2017)
